Measured values: patent US9271503B2, “Control of insect pests” (priority 2011, dated 2016)

Tested on: B. tabaci b-biotype adults and nymphs
Assay: Field trial on silverleaf whitefly against conventional insecticide (Example 21)
Format: in vivo, Bemisia tabaci
Details: formulations 2.0 L/ha, Diafenthiuron 0.80 L/ha
Description: The trial was conducted in an irrigated conventional cotton crops in a cotton farm. […] Each replicated plot measured 24 m wide 100 m long.
Foliar applications of each treatment were made over two weeks. Pre-treatment counts were made visually of B. tabaci adults and nymphs, on the under-surface of leaves of cotton plants in each treatment. […] Data of both adults and nymphs were expressed as numbers per leaf for each treatment.
Treatment and sample dates were the independent variables.

For `CC(C)c1cc(Oc2ccccc2)cc(C(C)C)c1NC(=S)NC(C)(C)C` [Diafenthiuron], the “Bemisia tabaci adults per leaf, 3 DAT” value was 15.33 ± 1.45 a per leaf, the “Bemisia tabaci adults per leaf, 7 DAT” value was 20.33 ± 2.40 ab per leaf and the “Bemisia tabaci adults per leaf, 14 DAT” value was 12.00 ± 0.88 a per leaf. For the same compound, the “Bemisia tabaci nymphs per leaf, 3 DAT” value was 28.67 ± 7.22 b per leaf, the “Bemisia tabaci nymphs per leaf, 7 DAT” value was 15.33 ± 2.40 a per leaf and the “Bemisia tabaci nymphs per leaf, 14 DAT” value was 17.00 ± 1.73 b per leaf. For the same compound, the “Bemisia tabaci adults, 3 DAT (% mortality)” value (relative to the control) was “(54.7%)”, the “Bemisia tabaci adults, 7 DAT (% mortality)” value (relative to the control) was “(32.2%)” and the “Bemisia tabaci adults, 14 DAT (% mortality)” value (relative to the control) was “(34.5%)”. For the same compound, the “Bemisia tabaci nymphs, 7 DAT (% mortality)” value (relative to the control) was “(22.1%)”, the “Bemisia tabaci nymphs, 14 DAT (% mortality)” value (relative to the control) was “(60.6%)” and the “Bemisia tabaci adults, 3 DAT (% mortality)” value (relative to the control, listed as conventional insecticide) was 38.7%.
